Values joined by “and” are separate entries in the source; they are usually repeats but may differ in a detail not shown here. Equal values may be shown once. “Also recorded” adds a separate entry of the source.
Key:
eyebrows = test: Use for restoring eyebrows: transparent gel applied nightly at the browbone, volunteers; format: in vivo, human
Text: A composition prepared according to the present invention is formulated as a transparent gel as described in the two described embodiments of Example 2. The formulation comprises water, at least one prostaglandin analog according to the present invention (concentration about 0.001% to about 0.05% w/w of the composition); a thickener, optionally a hair stimulating agent; caffeine, and at least one penetrating agent and the pH adjusted to 7.2. The gel is applied by brush as a line at the browbone every night on clean, oil-free brows in the absence of makeup. The gel is sufficiently aqueous to spread to the hair follicles but thick enough not to drip.
(§1) Test formulations contained either 0.025% or 0.05% 16-phenoxy PGF2α cyclopropyl amide. The formulation containing 0.025% 16-phenoxy PGF2α cyclopropyl amide was used on the left side, and the formulation containing 0.05% 16-phenoxy PGF2α cyclopropyl amide was used on the right side. Test formulations were given randomly to volunteers without consideration of coloration of eyelashes, race, ethnicity or sex.

eyelashes [1] = test: Use for restoring eyelashes: transparent gel applied nightly at the skin-eyelash border, volunteers; format: in vivo, human
Text: In one embodiment, the composition of the present invention is a transparent gel formulated according to Table 2. The formulation comprises water, at least one prostaglandin analog according to the present invention (concentration about 0.001% to about 0.05% w/w of the composition); a thickener, optionally a hair stimulating agent; caffeine, and at least one penetrating agent and the pH adjusted to 7.2. The gel is applied as a fine line at the skin-eyelash border every night on clean dry eyes. The gel is aqueous enough to spread to the hair follicles but thick enough not to drip.
In another embodiment, the composition is a transparent gel formulated to comprise at least one of 16-phenoxy PGF2α cyclopropyl amide; 17-phenyl trinor PGF2α cyclopropyl amide; 16-phenoxy PGF2α cyclopropyl methyl amide; or 17-phenyl trinor PGF2α cyclopropyl methyl amide (concentration about 0.001% to about 0.05% w/w of the composition) plus the following ingredients (Table 3):
as §1

[2] = Bovine cornea hydrolysis assay; format: in vitro ADME; settings: for % Hydrolyzed after 12 hr (negative control): PBS pH 7.4 only, no cornea, 37° C.; for % Hydrolyzed after 12 hr, Avg: average of cornea samples 1-3; for % Hydrolyzed after 12 hr: one bovine cornea in 10 ml PBS pH 7.4, 37° C., 250 μg compound, individual cornea samples 1-3
Text: A bovine cornea hydrolysis test system (K. M. Maxey, et al., “The Hydrolysis of Bimatoprost in Corneal Tissue Generates a Potential Prostanoid FP Receptor Agonist,” Survey of Ophthalmology, 47 (Suppl 1):S34-40 (2002)) has been used to determine whether four test compounds of the present invention, namely 16-phenoxy PGF2α cyclopropyl amide; 17-phenyl trinor PGF2α cyclopropyl amide; 16-phenoxy PGF2α cyclopropyl methyl amide; and 17-phenyl trinor PGF2α cyclopropyl methyl amide, react similarly to bimatoprost in this test system.
Bovine corneas are excised within 1-2 hour of death. For each compound tested, one cornea (0.6 g) is placed into an 18 mm×150 mm glass test tube containing 10 ml of phosphate-buffered saline (“PBS”) at pH 7.4. The compound of interest (250 μg in about 120 μl ethanol) is added to each test tube containing a cornea and to a tube containing only 10 ml of PBS (no cornea), which served as a negative control. Test tubes are covered with parafilm and incubated at 37° C. with shaking.
After the first time point, a 5 ml aliquot is removed from each test tube and transferred into another marked test tube. The remaining material continues to incubate at 37° C. until subsequent test time point(s) is/are reached. For each test tube, 1.0 ml of 5% KHSO4 is added to bring the pH down to about 3 and sufficient NaCl is added to saturate the solution; the solution then is extracted three times with 80% ethyl acetate-hexane. The solvent is evaporated under nitrogen, dissolved in 200 μl of 80% ethyl acetate-hexane, and the 200 μl sample then transferred to a 2 ml screw cap vial. Samples are stored at −20° C. until run on an HPLC column.
After the second time point, the cornea is removed from each experimental test tube. For each test tube, 1.0 ml of 5% KHSO4 is added to bring the pH down to about 3 and sufficient NaCl added to saturate the solution; the solution then is extracted three times with 80% ethyl acetate-hexane. The solvent is evaporated under nitrogen, dissolved in 200 μl of 80% ethyl acetate-hexane, and the 200 μl sample then transferred to 2 ml screw cap vials. Samples are stored at −20° C. until they are run on an HPLC column.
For HPLC, samples are run on a Beckman Ultrasphere ODS analytical C18 HPLC column (5μ, 4.6 mm×25 cm) at 1 ml/min using either 60:40:0.1 or 70:30:0.1 methanol:water:acetic acid as solvent. Absorbance is monitored at 210 nm.

eyelashes [3] = settings: background statement; cited from earlier work
[4] = 0.025% formulation left, 0.05% right
[5] = gel 0.025% / 0.05% nightly, single subject

## O=C(CCC/C=C\C[C@@H]1[C@@H](/C=C/[C@@H](O)COc2ccccc2)[C@H](O)C[C@@H]1O)NC1CC1 [16-phenoxy PGF2α cyclopropyl amide, 16-phenoxy tetranor PGF2α cyclopropyl amide]
eyebrows; [4]
  left side (0.025%) versus right side (0.05%), eyebrows: no significant difference
eyebrows; gel 0.025% (left) / 0.05% (right) nightly, single subject
  eyebrow hair result (in words): noticeable increase in number of hairs and color after 2 weeks; also recorded: Hairs started to fill in
Eyelashes [1]; [4]
  left side (0.025%) versus right side (0.05%), eyelashes: no significant difference; also recorded: Right side was faster to grow; also recorded: Subject thought right side was better; also recorded: Subject thought left side was better
Eyelashes [1]; gel 0.025% (left) / 0.05% (right) nightly, single subject, final result or time not given
  increase in eyelash length: about 55% and approximately 80% and approximately 45% and 50% and 45% and approximately 60% and 100% and 45-50%
Eyelashes [1]; [5]
  eyelash appearance (in words): darker, fuller and showed an upward curving angle of growth; also recorded: much thicker, fuller, longer and curvier than before use; also recorded: Lashes grew so much that by week 4 the test was discontinued because eyelashes were too long; also recorded: darker, fuller, and longer; also recorded: thicker and darker and curled upwards; also recorded: much thicker after 2 weeks; also recorded: much darker, thicker; also recorded: darker, and curved upwards; also recorded: longer, thicker and darker; also recorded: bushy, very thick, dark; also recorded: eyelashes had grown to the point of clear visibility below lids; also recorded: darker, thicker and lashes curled up; also recorded: darker and more upturned; also recorded: Noticeable improvement after 4 weeks even without mascara
  time by which increase in eyelash length / growth was obvious: about 3 weeks and ≤ 3 weeks and ≤ 2 weeks
  time to some thickening of eyelashes: ≤ 10 days
Eyelashes [1]; gel 0.025% / 0.05% nightly, single subject, 3 weeks
  increase in eyelash length: 40% and 30%
Eyelashes [1]; gel 0.025% / 0.05% nightly, single subject, 4 weeks
  increase in eyelash length: about 50% and 50% and approximately 60%
Eyelashes [1]; gel 0.025% / 0.05% nightly, single subject, 5 weeks
  increase in eyelash length: Approximately 60%; also recorded: about 100%; also recorded: approximately 45%
Eyelashes [1]; gel 0.025% / 0.05% nightly, single subject, 6 weeks
  increase in eyelash length: 100% and ~45% and 50%
Eyelashes [1]; gel 0.025% / 0.05% nightly, single subject, after two months
  increase in eyelash length: approximately 55%
Eyelashes [1]; gel 0.025% / 0.05% nightly, single subject, final or peak result
  increase in numbers of eyelashes: 60% and 30% and 50%
Eyelashes [1]; gel 0.025% / 0.05% nightly, single subject, final result
  increase in eyelash thickness: approximately doubled and approximately 60% and 100% and ~100%
Eyelashes [1]; subjects with dry eye
  tolerability of the product: tolerated the product well
[2]
  % Hydrolyzed after 12 hr (negative control): 0%
  % Hydrolyzed after 12 hr, Avg: 1.78%
  % Hydrolyzed after 12 hr: 2.0% and 1.89% and 1.44%

## O=C(CCC/C=C\C[C@@H]1[C@@H](/C=C/[C@@H](O)COc2ccccc2)[C@H](O)C[C@@H]1O)NCC1CC1 [16-phenoxy tetranor PGF2α cyclopropyl methyl amide]
[2]
  % Hydrolyzed after 12 hr (negative control): 0%
  % Hydrolyzed after 12 hr, Avg: 1.22%
  % Hydrolyzed after 12 hr: 1.28% and 1.18% and 1.2%

## O=C(CCC/C=C\C[C@@H]1[C@@H](/C=C/[C@@H](O)CCc2ccccc2)[C@H](O)C[C@@H]1O)NCC1CC1 [17 phenyl trinor PGF2α cyclopropyl methyl amide]
[2]
  % Hydrolyzed after 12 hr (negative control): 0%
  % Hydrolyzed after 12 hr, Avg: 0.91%
  % Hydrolyzed after 12 hr: 0.83% and 0.8% and 1.1%

## O=C(CCC/C=C\C[C@@H]1[C@@H](/C=C/[C@@H](O)CCc2ccccc2)[C@H](O)C[C@@H]1O)NC1CC1 [17-phenyl trinor PGF2α cyclopropyl amide, 17 phenyl trinor PGF2α cyclopropylamide]
[2]
  % Hydrolyzed after 12 hr (negative control): 0%
  % Hydrolyzed after 12 hr, Avg: 1.82%
  % Hydrolyzed after 12 hr: 1.31% and 2.0% and 2.15%

## CCNC(=O)CCC/C=C\C[C@@H]1[C@@H](/C=C/[C@@H](O)CCc2ccccc2)[C@H](O)C[C@@H]1O [Bimatoprost, cyclopentane N-ethyl heptenamide-5-cis-2-(3α-hydroxy-5-phenyl-1-trans-pentenyl)-3,4-dihydroxy, [1α, 2β, 3α, 5α]]
Eyelashes [3]
  effect on eyelash growth (in words): effective to increase the growth of eyelashes
  incidence of hyperemia: highest incidence of hyperemia
  negative side effects: redness and discoloration along the periocular skin; eye irritation; and foreign body sensation

## CC(C)OC(=O)CCC/C=C\C[C@@H]1[C@@H](CC[C@@H](O)CCc2ccccc2)[C@H](O)C[C@@H]1O [Latanoprost]
Eyelashes [3]
  effect on eyelash growth (in words): works poorly on eyelashes

## CC(C)OC(=O)CCC/C=C\C[C@@H]1[C@@H](/C=C/[C@@H](O)COc2cccc(C(F)(F)F)c2)[C@H](O)C[C@@H]1O [Travaprost, isopropyl (Z)-7-[(1R,2R,3R,5S)-3,5-dihydroxy-2-[(1E,3R)-3-hydroxy-4-[(α,α,α-trifluoro-m-tolyl)oxy]-1-butenyl]cyclopentyl]-5-heptenoate]
Eyelashes [3]
  effect on eyelash growth (in words): does not work well for eyelash growth, taking longer than other like products
